Assay results reported in patent US8268962B2, “Molecules for targeting compounds to various selected organs or tissues” (Prosensa Technologies B.V., priority 2007, dated 2012).
Where no end group is shown, it is not given here.

Assays:
[1] = test system: mdx mouse; experiment: In vivo targeting after subcutaneous injection of Cy5-labeled peptide (fluorescence imaging); conditions: 71 nmol subcutaneously on the back, 48 hours
Experimental: Peptide LGAQSNF was synthesized with the fluorescent label Cy5. This label can be detected with a high sensitivity by a fluorescence imaging system (NightOWL, Berthold Technologies) after systemic (intravenous or subcutaneous) injection into a mouse. This enables monitoring of the distribution across the different organs of a living mouse after injection of the compound. Of this peptide, 71 nmol was injected subcutaneously on the back of an mdx mouse and after 48 hours a picture was taken with the imaging system.
The mouse is lying on its back, and the back paws and an area on the abdomen were first shaved because the hairs on the skin impair detection of the signal. A clear signal could be detected in the back and front paws and in the tail. The signal in the shaved area on the abdomen is likely from abdominal muscle.

[2] = test system: gastrocnemius muscle of a healthy mouse; conditions: intramuscular, 5 nmol, after 3 days
Experimental: Uptake of the FAM-labeled peptides QLFTSAS (SEQ ID NO.: 3) and LGAQSNF (SEQ ID NO.: 100) was also tested on the muscle of a healthy mouse. Of each peptide 5 nmol was injected into the gastrocnemius muscle. After 3 days the mice were sacrified and the amount of staining was assessed. Samples were photographed with an inverted fluorescence microscope.

[3] = test system: gastrocnemius (calf muscle) of mdx mice; conditions: intramuscular, 2.5-5 nmol, cross-sections after three days
Experimental: FAM-labeled peptides QLFTSAS (SEQ ID NO.: 3) (5 nmol injected), LYQDYSL (SEQ ID NO.: 85) (2.5 nmol injected) and LGAQSNF (SEQ ID NO.: 100) (2.5 nmol injected) were analysed. After three days the mice were sacrificed and the muscles were snap frozen. Cross-sections were cut, fixed with acetone and mounted for analysis with a fluorescence microscope. Cross-sections were cut and photographed with a fluorescence microscope (CCD camera).

[4] = test system: myotubes obtained from human KM109 myoblast cultures; experiment: Uptake of FAM-labeled peptides and conjugate into cultured myotubes (fluorescence microscopy); type: cell-based; conditions: tested on human and mouse myotubes, no fixation
Experimental: Two of the peptides that occurred frequently after selection on both mouse and human myotubes, SPNSIGT and QLFTSAS, were synthesized with a fluorescent label (FAM) and tested for uptake into human and mouse differentiated muscle cells (myotubes). Myotubes were obtained from confluent human KM109 myoblast cultures by 7-14 days of serum deprivation. The culture was subsequently incubated with FAM-labeled peptide and photographed with an inverted fluorescence microscope, without previous fixation.
Peptide QLFTSAS was synthesized with a fluorescent label (FAM) and subsequently conjugated to a 21-mer 2′O-methyl phosphorothioate anti-sense oligonucleotide (AON). Myotubes were obtained from confluent human KM109 myoblast cultures by 7-14 days of serum deprivation. The culture was subsequently incubated with the FAM-labeled conjugate and photographed with an inverted fluorescence microscope, without previous fixation.
Three of the peptides that were found after four rounds of in vivo selection, were synthesized with a fluorescent label (FAM) and tested in cell culture for uptake on human myotubes as described in Example 1.

Row | Substance | distribution of Cy5-labeled peptide [1] | uptake of FAM-labeled peptide into myofibers of the injected muscle [2] | uptake of FAM-labeled peptide into muscle fibers [3] | uptake of FAM-labeled peptide into cultured myotubes [4]
1 | Cy5-labeled peptide LGAQSNF: Peptide LGAQSNF synthesized with the fluorescent label Cy5 (also: Cy5 label) | taken up by the abdominal muscle and by muscles in the hindlegs, paws and tail |  |  | 
2 | LGAQSNF |  | significant area of uptake | taken up into a large area of muscle fibers and were still visible after 3 days | 
3 | LYQDYSL |  |  | taken up into a large area of muscle fibers and were still visible after 3 days | 
4 | QLFTSAS (also: FAM label) |  | significant area of uptake | taken up into a large area of muscle fibers and were still visible after 3 days | significant uptake
5 | SPNSIGT (also: FAM label) [7-mer peptide from in vitro phage selection on myotubes; tested with FAM label] |  |  |  | significant uptake
